Assays:
[1] = tested on: tomato seedlings (WT, p1002 and p1003 lines); assay: Tomato seedling growth in the dark on 20 μM ACC with or without inducer; format: in vivo; settings: for Hypocotyls (mm) / Root (mm): 20 μM inducer, 20 μM ACC, 14 day old seedlings, dark
Experimental: Seed from three homozygous independent p1002 and p1003 lines were germinated in the dark on 0.5× MS medium+1% sucrose containing 20 μM ACC, the precursor to ethylene. Germination on ACC inhibits tomato seedling growth. Seed from the same lines also was germinated in the presence of 20 μM ACC plus 20 μM inducer.

[2] = tested on: tomato seedlings (WT, p1002-18, p1003-16); assay: Tomato seedling growth on 20 μM inducer and various levels of ACC; format: in vivo; settings: 20 μM inducer; for Hypocotyl (mm) / Root (mm): 14 day old seedlings
ACC oxidase = ACC oxidase expression in excised corn stalk sheath tissue, quantitative PCR; format: cell-based; settings: for ACC Oxidase Expression (relative): normalized to 0 inducer/0 ACC; for AVG ACO Expression: average of corn lines
Experimental: Corn plants were transformed using the plasmids for Example 1 by microparticle bombardment. Putative transformants were selected using either actinonin or bialaphos and confirmed by PCR analysis. Positive transformants were backcrossed to inbred B73 to increase vigor. Transgenic corn plants produced as described above were tested for modulation of ethylene sensitivity. Modulation of ethylene sensitivity was determined at the molecular level by exposing plants to ethylene and measuring the change in induction of ethylene-induced genes.
Transgenic corn plants produced as described above were tested for modulation of ethylene sensitivity. Modulation of ethylene sensitivity was determined at the molecular level by exposing plants to ACC, the precursor of ethylene and measuring the change in induction of ethylene-induced genes. Stalk sheath tissue was excised from transgenic T0 corn plants growing in a green house and used in an in vitro bioassay. Excised tissue was treated with either water or 20 μM inducer for 2 days to induce expression of the ethylene insensitive etr1-1 transgene. Following the 2 day induction period, the tissue was treated for one day with 0, 1 or 10 μM ACC to produce ethylene and then harvested. Harvested tissue was immediately placed in RNAlater (Ambion). Total RNA was prepared from the tissue using MagMAX-96 Total RNA Isolation Kit (Ambion). Induction of an ethylene inducible gene (ACC oxidase) was measured using quantitative PCR on an Applied Biosystems 7900 HT Fast Real-Time PCR system (ABI). TaqMan Assay Kit (ABI) was used for reverse transcriptase (RT) and PCR using manufacturer recommended protocols. Corn 18s was used as an internal control to normalize expression for each sample.
Sequences for the primers and probes were as follows: […]
In order to determine gene expression, ACC oxidase expression in the 0 μM inducer plus 0 μM ACC control treatment was normalized for each respective corn line.

[3] = tested on: transformed tobacco plants; assay: Triple response assay, shoot length of transformed tobacco shoots in dark with ethylene; format: in vivo; settings: tobacco plant 185-3 (VGE), induced, 10 μM inducer, ethylene about 10 ppm, 18 days
[4] = tomato line p1002-4 (first line so labelled, r8)
[5] = tomato line p1002-4 (second line so labelled, r13)

## CCC(N(NC(=O)c1ccc2c(c1C)O[C@@H](CO)CO2)C(=O)c1cc(C)cc(C)c1)C(C)(C)C (stereo partly drawn) [inducer, 3,5 Dimethyl-benzoic acid N-(1-ethyl-2,2-dimethyl-propyl)-N′-(3S-hydroxymethyl-5-methyl-2,3-dihydro-benzo[1,4]dioxine-6-carbonyl)hydrazide]
[1]; WT tomato
  Hypocotyls (mm): 11.2 ± 3.18 mm
  Root (mm): 11.2 ± 3.18 mm
[1]; [4]
  Hypocotyls (mm): 32.7 ± 16.8 mm
  Root (mm): 42.2 ± 16.3 mm
[1]; [5]
  Hypocotyls (mm): 33.9 ± 6.02 mm
  Root (mm): 29.8 ± 21.4 mm
[1]; tomato line p1002-7
  Hypocotyls (mm): 36.2 ± 8.42 mm
  Root (mm): 44.5 ± 7.71 mm
[1]; tomato line p1002-9
  Hypocotyls (mm): 29.9 ± 7.85 mm
  Root (mm): 35.0 ± 16.0 mm
[1]; tomato line p1002-16
  Hypocotyls (mm): 39.6 ± 9.62 mm
  Root (mm): 19.5 ± 16.3 mm
[1]; tomato line p1002-18
  Hypocotyls (mm): 35.4 ± 8.82 mm
  Root (mm): 35.4 ± 8.82 mm
[1]; tomato p1002 and p1003 lines, growth on ACC in the presence of inducer
  ethylene insensitivity (elongated hypocotyls with no apical hook): resulted in a state of ethylene insensitivity
[2]; WT tomato, 5 μM Ag
  Hypocotyl (mm): 41.4 ± 8.20 mm
  Root (mm): 22.3 ± 5.66 mm
[2]; WT tomato, ACC 0 μM
  Hypocotyl (mm): 36.4 ± 9.44 mm
  Root (mm): 28.8 ± 6.26 mm
[2]; WT tomato, ACC 1 μM
  Hypocotyl (mm): 25.9 ± 12.7 mm
  Root (mm): 14.4 ± 9.42 mm
[2]; WT tomato, ACC 2.5 μM
  Hypocotyl (mm): 11.3 ± 6.25 mm
  Root (mm): 12.3 ± 9.41 mm
[2]; WT tomato, ACC 5 μM
  Hypocotyl (mm): 8.50 ± 4.35 mm
  Root (mm): 10.4 ± 8.73 mm
[2]; WT tomato, ACC 10 μM
  Hypocotyl (mm): 7.71 ± 1.20 mm
  Root (mm): 13.1 ± 10.8 mm
[2]; WT tomato, ACC 20 μM
  Hypocotyl (mm): 3.21 ± 1.19 mm
  Root (mm): 11.2 ± 9.40 mm
[2]; p1002-18 tomato, 5 μM Ag
  Hypocotyl (mm): 38.2 ± 6.85 mm
  Root (mm): 31.6 ± 5.68 mm
[2]; p1002-18 tomato, ACC 0 μM
  Hypocotyl (mm): 40.7 ± 9.50 mm
  Root (mm): 30.9 ± 7.14 mm
[2]; p1002-18 tomato, ACC 1 μM
  Hypocotyl (mm): 28.4 ± 18.0 mm
  Root (mm): 24.7 ± 7.53 mm
[2]; p1002-18 tomato, ACC 2.5 μM
  Hypocotyl (mm): 29.4 ± 15.0 mm
  Root (mm): 25.8 ± 8.50 mm
[2]; p1002-18 tomato, ACC 5 μM
  Hypocotyl (mm): 27.3 ± 9.03 mm
  Root (mm): 24.0 ± 7.77 mm
[2]; p1002-18 tomato, ACC 10 μM
  Hypocotyl (mm): 28.0 ± 14.1 mm
  Root (mm): 24.8 ± 6.03 mm
[2]; p1002-18 tomato, ACC 20 μM
  Hypocotyl (mm): 26.5 ± 15.1 mm
  Root (mm): 24.1 ± 3.98 mm
[2]; p1003-16 tomato, 5 μM Ag
  Hypocotyl (mm): 36.3 ± 9.08 mm
  Root (mm): 23.8 ± 4.92 mm
[2]; p1003-16 tomato, ACC 0 μM
  Hypocotyl (mm): 39.8 ± 17.1 mm
  Root (mm): 18.7 ± 3.94 mm
[2]; p1003-16 tomato, ACC 1 μM
  Hypocotyl (mm): 39.3 ± 11.0 mm
  Root (mm): 18.2 ± 716 mm
[2]; p1003-16 tomato, ACC 2.5 μM
  Hypocotyl (mm): 38.9 ± 18.2 mm
  Root (mm): 12.9 ± 8.61 mm
[2]; p1003-16 tomato, ACC 5 μM
  Hypocotyl (mm): 33.0 ± 15.2 mm
  Root (mm): 12.9 ± 9.36 mm
[2]; p1003-16 tomato, ACC 10 μM
  Hypocotyl (mm): 29.7 ± 18.8 mm
  Root (mm): 12.7 ± 12.1 mm
[2]; p1003-16 tomato, ACC 20 μM
  Hypocotyl (mm): 24.3 ± 15.2 mm
  Root (mm): 13.0 ± 7.92 mm
[2]; tomato p1002 and p1003 line, ACC 1.0-20 μM
  induction of ethylene insensitivity over ACC concentrations: induction of ethylene insensitivity occurred across the range of ACC concentrations tested
ACC oxidase; Corn Line 4.5, 20 μM inducer/0 ACC
  ACC Oxidase Expression (relative): 1.351
ACC oxidase; Corn Line 4.5, 20 μM inducer/1 μM ACC
  ACC Oxidase Expression (relative): 1.081
ACC oxidase; Corn Line 4.5, 20 μM inducer/10 μM ACC
  ACC Oxidase Expression (relative): 0.4184
ACC oxidase; Corn Line 4.6, 20 μM inducer/0 ACC
  ACC Oxidase Expression (relative): 1.148
ACC oxidase; Corn Line 4.6, 20 μM inducer/1 μM ACC
  ACC Oxidase Expression (relative): 0.7581
ACC oxidase; Corn Line 4.6, 20 μM inducer/10 μM ACC
  ACC Oxidase Expression (relative): 0.3348
ACC oxidase; Corn Line 4.7, 20 μM inducer/0 ACC
  ACC Oxidase Expression (relative): 0.7452
ACC oxidase; Corn Line 4.7, 20 μM inducer/1 μM ACC
  ACC Oxidase Expression (relative): 1.388
ACC oxidase; Corn Line 4.7, 20 μM inducer/10 μM ACC
  ACC Oxidase Expression (relative): 0.2557
ACC oxidase; Corn Line 10.2, 20 μM inducer/0 ACC
  ACC Oxidase Expression (relative): 1.378
ACC oxidase; Corn Line 10.2, 20 μM inducer/1 μM ACC
  ACC Oxidase Expression (relative): 0.4928
ACC oxidase; Corn Line 10.2, 20 μM inducer/10 μM ACC
  ACC Oxidase Expression (relative): 0.6761
ACC oxidase; Corn Line 10.4, 20 μM inducer/0 ACC
  ACC Oxidase Expression (relative): 0.3437
ACC oxidase; Corn Line 10.4, 20 μM inducer/1 μM ACC
  ACC Oxidase Expression (relative): 0.3591
ACC oxidase; Corn Line 10.4, 20 μM inducer/10 μM ACC
  ACC Oxidase Expression (relative): 1.821
ACC oxidase; Corn Line 10.5, 20 μM inducer/0 ACC
  ACC Oxidase Expression (relative): 0.6804
ACC oxidase; Corn Line 10.5, 20 μM inducer/1 μM ACC
  ACC Oxidase Expression (relative): 0.06813
ACC oxidase; Corn Line 10.5, 20 μM inducer/10 μM ACC
  ACC Oxidase Expression (relative): 0.1983
ACC oxidase; Corn Line B73, 20 μM inducer/0 ACC
  ACC Oxidase Expression (relative): 1.964
ACC oxidase; Corn Line B73, 20 μM inducer/1 μM ACC
  ACC Oxidase Expression (relative): 0.09506
ACC oxidase; Corn Line B73, 20 μM inducer/10 μM ACC
  ACC Oxidase Expression (relative): 0.2589
ACC oxidase; 20 μM inducer/0 ACC
  AVG ACO Expression: 1.087
ACC oxidase; 20 μM inducer/1 μM ACC
  AVG ACO Expression: 0.6061
ACC oxidase; 20 μM inducer/10 μM ACC
  AVG ACO Expression: 0.5662
ACC oxidase; presence of inducer plus ACC
  average expression of ACC oxidase in the transgenic corn lines: repressed
ACC oxidase; transgenic corn with etr1-1 cassettes, presence of inducing compound, exposed to ethylene
  ethylene insensitivity, based on decreased expression of ethylene inducible genes: demonstrated ethylene insensitivity
[3]
  Shoot Length Avg (cm): 5.6 cm

Source: patent publication US8168860B2, “Compositions and methods for the modification of physiological responses in plants” (Rohm and Haas Company, priority 2007, dated 2012)
